{"source": "patent US20240101570A1", "about": "(AMGEN INC., priority 2020, published 2024)", "key": {"[1]": {"test_system": "HCT116 MTAP null cells", "experiment": "HCT116 MTAP null cell proliferation / viability (CellTiter-Glo, 6 days)", "assay_type": "cell-based", "conditions": "HCT116-MTAP null, 144 h, HCT116 MTAP null cells, 6 days, CellTiter-Glo; read-out: HCT-116 MTAP null IC50", "in_short": "(§1)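 Viability read by CellTiter-Glo after 6-day compound exposure of MTAP-null and wild-type HCT116 cells grown in RPMI 1640 with 10% FBS. Dosing used 1:3 steps from 1 or 10 μM (8-9 points) or 1:2 steps from 10 or 50 μM (22 points); IC50 taken where fitted curve crosses 50% of control.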"}, "[2]": {"test_system": "HCT116 WT cells", "experiment": "HCT116 WT cell proliferation / viability (CellTiter-Glo, 6 days)", "assay_type": "cell-based", "conditions": "Homo sapiens, HCT-116, 144 h, HCT116 WT cells, 6 days, CellTiter-Glo; read-out: HCT-116 WT IC50", "in_short": "as §1"}}}
{"smiles": "Nc1nc2cc(F)c(C(=O)N(Cc3ccc(C(F)(F)F)nn3)CC3CC3)cc2c2c1COC2", "note": "[Example 730, 4-amino-N-(cyclopropylmethyl)-7-fluoro-N-((6-(trifluoromethyl)-3-pyridazinyl)methyl)-1,3-dihydrofuro[3,4-c]quinoline-8-carboxamide]", "values": [{"measurement": "IC50", "setting": "[1]", "result": 17, "unit": "nM"}, {"measurement": "IC50", "setting": "[2]", "result": 620, "unit": "nM"}]}
{"smiles": "COCC(C)(C)N(Cc1ccc(Br)nn1)C(=O)c1ccc2nc(N)c3c(c2c1)COC3", "note": "[Example 644, 4-amino-N-((6-bromo-3-pyridazinyl)methyl)-N-(1-methoxy-2-methyl-2-propanyl)-1,3-dihydrofuro[3,4-c]quinoline-8-carboxamide]", "values": [{"measurement": "IC50", "setting": "[1]", "result": 2790, "unit": "nM"}, {"measurement": "IC50", "setting": "[2]", "result": "> 10000", "unit": "nM"}]}
{"smiles": "C[C@H]1OCc2c1c(N)nc1cnc(C(=O)N(Cc3ccc(C(F)(F)F)cn3)CC(F)(F)F)cc21", "note": "[Example 320, (3R)-4-amino-3-methyl-N-(2,2,2-trifluoroethyl)-N-((5-(trifluoromethyl)-2-pyridinyl)methyl)-1,3-dihydrofuro [3,4-c][1,7]naphthyridine-8-carboxamide]", "values": [{"measurement": "IC50", "setting": "[1]", "result": 303, "unit": "nM"}, {"measurement": "IC50", "setting": "[2]", "result": 15800, "unit": "nM"}]}
{"smiles": "Nc1nc2ccc(C(=O)N(Cc3ccc(C(F)(F)F)cn3)Cc3ncccc3F)cc2c2ccsc12", "note": "[Example 635, 4-amino-N-((3-fluoro-2-pyridinyl)methyl)-N-((5-(trifluoromethyl)-2-pyridinyl)methyl)thieno[2,3-c]quinoline-8-carboxamide]", "values": [{"measurement": "IC50", "setting": "[1]", "result": 73, "unit": "nM"}, {"measurement": "IC50", "setting": "[2]", "result": 1210, "unit": "nM"}]}
{"smiles": "C[C@H](c1ncccn1)N(Cc1ccc(C(F)(F)F)cn1)C(=O)c1ccc2nc(N)c3c(c2c1)CCC3", "note": "[Example 610, 4-amino-N-((1R)-1-(2-pyrimidinyl)ethyl)-N-((5-(trifluoromethyl)-2-pyridinyl)methyl)-2,3-dihydro-1H-cyclopenta[c]quinoline-8-carboxamide]", "values": [{"measurement": "IC50", "setting": "[1]", "result": 6, "unit": "nM"}, {"measurement": "IC50", "setting": "[2]", "result": 135, "unit": "nM"}]}
{"smiles": "COC[C@@H](C)N(Cc1ccc(Cl)nn1)C(=O)c1ccc2nc(N)c3c(c2c1)CO[C@@H]3C", "note": "[Example 307, (3R)-4-amino-N-((6-chloro-3-pyridazinyl)methyl)-N-((2R)-1-methoxy-2-propanyl)-3-methyl-1,3-dihydrofuro[3,4-c]quinoline-8-carboxamide]", "values": [{"measurement": "IC50", "setting": "[1]", "result": 18, "unit": "nM"}, {"measurement": "IC50", "setting": "[2]", "result": 471, "unit": "nM"}]}
{"smiles": "C[C@H](c1ncccn1)N(Cc1ccc(Br)cn1)C(=O)c1ccc2nc(N)c3c(c2c1)COC3", "note": "[Example 658, 4-amino-N-((5-bromo-2-pyridinyl)methyl)-N-((1R)-1-(2-pyrimidinyl)ethyl)-1,3-dihydrofuro[3,4-c]quinoline-8-carboxamide]", "values": [{"measurement": "IC50", "setting": "[1]", "result": 6, "unit": "nM"}, {"measurement": "IC50", "setting": "[2]", "result": 71, "unit": "nM"}]}
{"smiles": "C[C@H]1OCc2c1c(N)nc1cnc(C(=O)N(C)Cc3ccc(C(F)(F)F)nn3)cc21", "note": "[Example 317, (3R)-4-amino-N,3-dimethyl-N-((6-(trifluoromethyl)-3-pyridazinyl)methyl)-1,3-dihydrofuro [3,4-c][1,7]naphthyridine-8-carboxamide]", "values": [{"measurement": "IC50", "setting": "[1]", "result": 432, "unit": "nM"}, {"measurement": "IC50", "setting": "[2]", "result": 49700, "unit": "nM"}]}
{"smiles": "C[C@H](c1ncccn1)N(Cc1ccc(C(F)F)cn1)C(=O)c1ccc2nc(N)c3c(c2c1)CCC3", "note": "[Example 623, 4-amino-N-((5-(difluoromethyl)-2-pyridinyl)methyl)-N-((1R)-1-(2-pyrimidinyl)ethyl)-2,3-dihydro-1H-cyclopenta[c]quinoline-8-carboxamide]", "values": [{"measurement": "IC50", "setting": "[1]", "result": 15, "unit": "nM"}, {"measurement": "IC50", "setting": "[2]", "result": 148, "unit": "nM"}]}
{"smiles": "C[C@H]1OCc2c1c(N)nc1cc(F)c(C(=O)N(Cc3ccc(OCC(F)(F)F)nn3)CC3CC3)cc21", "note": "[Example 818, (3R)-4-amino-N-(cyclopropylmethyl)-7-fluoro-3-methyl-N-((6-(2,2,2-trifluoroethoxy)-3-pyridazinyl)methyl)-1,3-dihydrofuro[3,4-c]quinoline-8-carboxamide]", "values": [{"measurement": "IC50", "setting": "[1]", "result": 7, "unit": "nM"}, {"measurement": "IC50", "setting": "[2]", "result": 161, "unit": "nM"}]}
{"smiles": "C[C@@H](c1ccc(C(F)(F)F)cn1)N(C(=O)c1ccc2nc(N)c3c(c2c1)COC3)C1CC1", "note": "[Example 735, 4-amino-N-cyclopropyl-N-((1S)-1-(5-(trifluoromethyl)-2-pyridinyl)ethyl)-1,3-dihydrofuro[3,4-c]quinoline-8-carboxamide]", "values": [{"measurement": "IC50", "setting": "[1]", "result": 5500, "unit": "nM"}, {"measurement": "IC50", "setting": "[2]", "result": 36200, "unit": "nM"}]}
{"smiles": "C[C@H](c1ncc(C(F)(F)F)cc1F)N(C)C(=O)c1cc2c(cc1F)nc(N)c1cnn(C)c12", "note": "(single isomer, unassigned) [Example 863]", "values": [{"measurement": "IC50", "setting": "[1]", "result": 7, "unit": "nM"}, {"measurement": "IC50", "setting": "[2]", "result": 340, "unit": "nM"}]}
{"smiles": "Cn1ncc2c(N)nc3cc(F)c(C(=O)N(Cc4ccc(C(F)(F)F)cn4)CC(F)(F)F)cc3c21", "note": "[Example 800, 4-amino-7-fluoro-1-methyl-N-(2,2,2-trifluoroethyl)-N-((5-(trifluoromethyl)-2-pyridinyl)methyl)-1H-pyrazolo[4,3-c]quinoline-8-carboxamide]", "values": [{"measurement": "IC50", "setting": "[1]", "result": 7, "unit": "nM"}, {"measurement": "IC50", "setting": "[2]", "result": 245, "unit": "nM"}]}
{"smiles": "CO[C@@H]1COCC[C@H]1N(Cc1ccc(C(F)(F)F)cn1)C(=O)c1ccc2nc(N)c3c(c2c1)COC3", "note": "(racemic) [Example 459, 4-amino-N-((3R,4S)-3-methoxytetrahydro-2H-pyran-4-yl)-N-((5-(trifluoromethyl)-2-pyridinyl)methyl)-1,3-dihydrofuro[3,4-c]quinoline-8-carboxamide and 4-amino-N-((3S,4R)-3-methoxytetrahydro-2H-pyran-4-yl)-N-((5-(trifluoromethyl)-2-pyridinyl)methyl)-1,3-dihydrofuro[3,4-c]quinoline-8-carboxamide]", "values": [{"measurement": "IC50", "setting": "[1]", "result": 29, "unit": "nM"}, {"measurement": "IC50", "setting": "[2]", "result": 305, "unit": "nM"}]}
{"smiles": "CCN(C(=O)c1cc2c3c(c(N)nc2cc1F)[C@H](C)OC3)[C@H](C)c1ccc(C(F)(F)F)nn1", "note": "[Example 785, (3S)-4-amino-N-ethyl-7-fluoro-3-methyl-N-((1R)-1-(6-(trifluoromethyl)-3-pyridazinyl)ethyl)-1,3-dihydrofuro[3,4-c]quinoline-8-carboxamide]", "values": [{"measurement": "IC50", "setting": "[1]", "result": 851, "unit": "nM"}, {"measurement": "IC50", "setting": "[2]", "result": 19800, "unit": "nM"}]}
{"smiles": "CC(C)N(Cc1ccc(C#N)cn1)C(=O)c1ccc2nc(N)c3c(c2c1)CO[C@@H]3C", "note": "[Example 354, (3R)-4-amino-N-((5-cyano-2-pyridinyl)methyl)-3-methyl-N-(2-propanyl)-1,3-dihydrofuro[3,4-c]quinoline-8-carboxamide]", "values": [{"measurement": "IC50", "setting": "[1]", "result": 623, "unit": "nM"}, {"measurement": "IC50", "setting": "[2]", "result": 21400, "unit": "nM"}]}
{"smiles": "CC1OCc2c1c(N)nc1ccc(C(=O)N(Cc3ccc(C(F)(F)F)cn3)Cc3ncccc3F)cc21", "note": "(stereo not shown) [Example 890, 4-amino-N-((3-fluoropyridin-2-yl)methyl)-3-methyl-N-((5-(trifluoromethyl)pyridin-2-yl)methyl)-1,3-dihydrofuro[3,4-c]quinoline-8-carboxamide]", "values": [{"measurement": "IC50", "setting": "[1]", "result": 14, "unit": "nM"}, {"measurement": "IC50", "setting": "[2]", "result": 156, "unit": "nM"}]}
{"smiles": "CN(Cc1ccc(C(F)(F)F)c(F)c1)C(=O)c1ccc2nc(N)c3cnn(C)c3c2c1", "note": "[Example 526, 4-amino-N-(3-fluoro-4-(trifluoromethyl)benzyl)-N,1-dimethyl-1H-pyrazolo[4,3-c]quinoline-8-carboxamide]", "values": [{"measurement": "IC50", "setting": "[1]", "result": 169, "unit": "nM"}, {"measurement": "IC50", "setting": "[2]", "result": 6950, "unit": "nM"}]}
{"smiles": "Nc1nc2cnc(C(=O)N(Cc3ccc(C(F)(F)F)cc3)C3CC3)cc2c2c1COC2", "note": "[Example 734, 4-amino-N-cyclopropyl-N-(4-(trifluoromethyl)benzyl)-1,3-dihydrofuro[3,4-c][1,7]naphthyridine-8-carboxamide]", "values": [{"measurement": "IC50", "setting": "[1]", "result": 383, "unit": "nM"}, {"measurement": "IC50", "setting": "[2]", "result": 14400, "unit": "nM"}]}
{"smiles": "C[C@H](c1ncccn1)N(Cc1ccc(C(F)(F)F)cn1)C(=O)c1cc2c3c(c(N)nc2cc1Cl)COC3", "note": "[Example 655, 4-amino-7-chloro-N-((1R)-1-(2-pyrimidinyl)ethyl)-N-((5-(trifluoromethyl)-2-pyridinyl)methyl)-1,3-dihydrofuro[3,4-c]quinoline-8-carboxamide]", "values": [{"measurement": "IC50", "setting": "[1]", "result": 16, "unit": "nM"}, {"measurement": "IC50", "setting": "[2]", "result": 294, "unit": "nM"}]}
{"smiles": "CC1(CN(Cc2ccc(C(F)(F)F)cn2)C(=O)c2ccc3nc(N)c4c(c3c2)COC4(C)C)CC1", "note": "[Example 341, 4-amino-3,3-dimethyl-N-((1-methylcyclopropyl)methyl)-N-((5-(trifluoromethyl)-2-pyridinyl)methyl)-1,3-dihydrofuro[3,4-c]quinoline-8-carboxamide]", "values": [{"measurement": "IC50", "setting": "[1]", "result": 212, "unit": "nM"}, {"measurement": "IC50", "setting": "[2]", "result": 3790, "unit": "nM"}]}
{"smiles": "COCC(COC)N(Cc1ccc(C(F)(F)F)cn1)C(=O)c1ccc2nc(N)c3c(c2c1)COC3", "note": "[Example 444, 4-amino-N-(1,3-dimethoxy-2-propanyl)-N-((5-(trifluoromethyl)-2-pyridinyl)methyl)-1,3-dihydrofuro[3,4-c]quinoline-8-carboxamide]", "values": [{"measurement": "IC50", "setting": "[1]", "result": 13, "unit": "nM"}, {"measurement": "IC50", "setting": "[2]", "result": 343, "unit": "nM"}]}
{"smiles": "Nc1nc2cnc(C(=O)N(Cc3ccc(C(F)(F)F)cn3)C34CC(C3)C4)cc2c2c1COC2", "note": "[Example 689, 4-amino-N-(bicyclo[1.1.1]pentan-1-yl)-N-((5-(trifluoromethyl)-2-pyridinyl)methyl)-1,3-dihydrofuro[3,4-c][1,7]naphthyridine-8-carboxamide]", "values": [{"measurement": "IC50", "setting": "[1]", "result": 96, "unit": "nM"}, {"measurement": "IC50", "setting": "[2]", "result": 2580, "unit": "nM"}]}
{"smiles": "CC(C)N(Cc1ccc(C2CC2)cn1)C(=O)c1cc2c(cc1F)nc(N)c1c2cnn1C", "note": "[Example 522, 4-amino-N-((5-cyclopropyl-2-pyridinyl)methyl)-7-fluoro-3-methyl-N-(2-propanyl)-3H-pyrazolo[3,4-c]quinoline-8-carboxamide]", "values": [{"measurement": "IC50", "setting": "[1]", "result": 14, "unit": "nM"}, {"measurement": "IC50", "setting": "[2]", "result": 380, "unit": "nM"}]}
{"smiles": "Nc1nc2cc(F)c(C(=O)N(Cc3ccc(OCC(F)(F)F)nn3)CC3CC3)cc2c2c1COC2", "note": "[Example 816, 4-amino-N-(cyclopropylmethyl)-7-fluoro-N-((6-(2,2,2-trifluoroethoxy)-3-pyridazinyl)methyl)-1,3-dihydrofuro[3,4-c]quinoline-8-carboxamide]", "values": [{"measurement": "IC50", "setting": "[1]", "result": 78, "unit": "nM"}, {"measurement": "IC50", "setting": "[2]", "result": 2490, "unit": "nM"}]}
{"smiles": "COCC(C)N(Cc1ccc(C(F)(F)F)nn1)C(=O)c1ccc2nc(N)c3c(c2c1)COC3", "note": "(racemic) [Example 303, 4-amino-N-((2R)-1-methoxy-2-propanyl)-N-((6-(trifluoromethyl)-3-pyridazinyl)methyl)-1,3-dihydrofuro[3,4-c]quinoline-8-carboxamide and 4-amino-N-((2S)-1-methoxy-2-propanyl)-N-((6-(trifluoromethyl)-3-pyridazinyl)methyl)-1,3-dihydrofuro[3,4-c]quinoline-8-carboxamide]", "values": [{"measurement": "IC50", "setting": "[1]", "result": 24, "unit": "nM"}, {"measurement": "IC50", "setting": "[2]", "result": 574, "unit": "nM"}]}
